Our source for the Ki values is BindingDB's records for doi:10.1021/jm00024a005 (National Institute of Diabetes and Digestive and Kidney …, 1996).

“And” between values parts separate entries of the source, which are not always exact repeats. Equal values may be shown once.

A short description of this assay: Ability to inhibit [3H](+)-pentazocine binding to guinea pig brain Sigma receptor type 1.
For the compound `CN1CCC2(c3cccc(O)c3)CC(=O)C(=Cc3ccc4ccccc4c3)C1C2` (stereo not given) [5-(3-Hydroxy-phenyl)-2-methyl-8-[1-naphthalen-2-yl-meth-(E)-ylidene]-2-aza-bicyclo[3.3.1]nonan-7-one], the inhibition constant Ki worked out at 16.6 nM.
As for `CN1CCC2(c3cccc(O)c3)CC(=O)C(=CC3CC3)C1C2` (stereo not given) [8-[1-Cyclopropyl-meth-(E)-ylidene]-5-(3-hydroxy-phenyl)-2-methyl-2-aza-bicyclo[3.3.1]nonan-7-one], the figure is 62.3 nM; as for `CN1CCC2(c3cccc(O)c3)CC(=O)C(=Cc3ccc(I)cc3)C1C2` (stereo not given) [5-(3-Hydroxy-phenyl)-8-[1-(4-iodo-phenyl)-meth-(E)-ylidene]-2-methyl-2-aza-bicyclo[3.3.1]nonan-7-one], 1.71 nM; as for `COc1ccc(C=C2C(=O)CC3(c4cccc(O)c4)CCN(C)C2C3)cc1` (stereo not given) [5-(3-Hydroxy-phenyl)-8-[1-(4-methoxy-phenyl)-meth-(E)-ylidene]-2-methyl-2-aza-bicyclo[3.3.1]nonan-7-one], 1.9 nM and 7.8 nM.
With `CN1CCC2(c3cccc(O)c3)CC(=O)C(=Cc3cccc(I)c3)C1C2` (stereo not given) [5-(3-Hydroxy-phenyl)-8-[1-(3-iodo-phenyl)-meth-(E)-ylidene]-2-methyl-2-aza-bicyclo[3.3.1]nonan-7-one] the figure was 1.62 nM.
